In US8129337B2, “Compositions comprising epigallocatechin gallate and protein hydrolysate” (DSM IP Assets B.V., priority 2005, dated 2012):

Test system: db/db mice
Test: Pathologically changed islets of Langerhans in pancreata of db/db mice after 10 weeks of diet
Type: in vivo, mouse
Details: 10 weeks of feeding the diet
Protocol: Diets containing EGCG, or protein hydrolysate, or the combination of EGCG and protein hydrolysate, or placebo were administered to db/db mice (6 weeks old). The db/db mouse model of severe type 2 diabetes mellitus is well established and commonly used to assess the antidiabetic properties of nutritional or pharmaceutical interventions. Furthermore, the animals are characterized by a progressive loss of pancreatic function and pathological changes of pancreatic histology and morphology. The pancreatic damage occurring in db/db mice is the consequence of high blood glucose and lipid levels. After 10 weeks of administration of the respective diets pancreata of all mice were removed and assessed for pathologically changed islets of Langerhans.

O=C(O[C@@H]1Cc2c(O)cc(O)cc2O[C@@H]1c1cc(O)c(O)c(O)c1)c1cc(O)c(O)c(O)c1 [EGCG, epigallocatechin gallate]
Pathological islets (in % of total islets) (db/db mice (6 weeks old at start), n = 9 per group, means ± SEM): 36.5 ± 4.1 % of total islets | Effect on pathologically changed islets of Langerhans compared to placebo (in words) (db/db mice): less pathologically changed islets of Langerhans compared to placebo
